Assay results: US7964647B2 (Mutual Pharmaceutical Company, Inc., priority 2007, dated 2011)
Read-outs that look alike come from different tables or passages of the source.

Legend:
[1] = Pharmacokinetic study of standard-dose acute gout regimen 4.8 mg over 6 hours (Example 6)
Procedure: This study was a single center, randomized, double-blind, double-dummy pharmacokinetic and exploratory ECG safety study.
Those randomized to moxifloxacin received 1×400 mg tablet.

[2] = metabolite after single and multiple 0.6 mg colchicine doses
Procedure: Subjects received a light breakfast served 60 minutes following dose administration in the morning and the evening dose was administered 90 minutes after an evening meal on Days 15 through 24 only. […] Study periods were separated by a 14-day washout. Following the single dose and the last dose of the multiple dose regimen (beginning on the mornings of Day 1 and Day 25, respectively), blood samples were collected (6 mL each) from each subject within 1 hour prior to dosing and after dose administration at study hours 0.5, 1, 1.5, 2, 3, 4, 6, 8, 10, 12, and 24 (while confined) and 36, 48, 72, and 96 (on an outpatient basis).

[3] = metabolite after low-dose colchicine 1.8 mg, all subjects
Procedure: This study was a single-center, single-period, open-label pharmacokinetic study conducted in healthy subjects under fasting conditions.
Subjects received 2×0.6 mg tablets initially followed by 1×0.6 mg tablet 1 hour later.

[4] = metabolite after standard-dose colchicine 4.8 mg over 6 hours, N = 8
[5] = standard-dose colchicine 4.8 mg

Row | SMILES | 2-DMC plasma concentrations ([1]; metabolite after standard-dose colchicine 4.8 mg, all subjects) | 2-DMC plasma concentrations (all below LOQ) [2] | 2-DMC plasma concentrations [3] | 3-DMC AUC∞, mean [1, 4] | 3-DMC Ke, mean [1, 4] | 3-DMC t1/2, mean [1, 4] | 3-DMC AUC0-t, mean ([1]; metabolite after standard-dose colchicine 4.8 mg over 6 hours, N = 13) | 3-DMC Tmax, mean ([1]; metabolite after standard-dose colchicine 4.8 mg over 6 hours, N = 14) | 3-DMC Cmax, mean ([1]; metabolite after standard-dose colchicine 4.8 mg over 6 hours, N = 15) | Mean 3-DMC AUC0-t as % of mean colchicine AUC0-t [1, 5] | Mean 3-DMC AUC∞ as % of mean colchicine AUC∞ [1, 5] | Mean 3-DMC Cmax as % of mean colchicine Cmax [1, 5]
1 | COc1cc2c(c(OC)c1O)-c1ccc(OC)c(=O)cc1[C@@H](NC(C)=O)CC2 [2-DMC, N-[(7S,12aS)-2-hydroxy-1,3,10-trimethoxy-9-oxo-5,6,7,9-tetrahydrobenzo[a]heptalen-7-yl]-acetamide] | below LOQ | < 0.2 ng/mL | below the LOQ |  |  |  |  |  |  |  |  | 
2 | COc1c(O)cc2c(c1OC)-c1ccc(OC)c(=O)cc1[C@@H](NC(C)=O)CC2 [3-DMC, N-[(7S,12aS)-3-hydroxy-1,2,10-trimethoxy-9-oxo-5,6,7,9-tetrahydrobenzo[a]heptalen-7-yl]-acetamide] |  |  |  | 4.84 ng·h/mL | 0.1418 h⁻¹ | 6.93 h | 2.09 ng·h/mL | 5.06 h | 0.32 ng/mL | ~2% | ~4.1% | approximately 4.7%
